Patent US20070066543A1, “Treatment of tay sachs or sandhoff diseases by enhancing hexosaminidase activity” (The Hospital For Sick Children, priority 2003, published 2007)
Read-outs that look alike come from different tables or passages of the source.

Experiments:
hexosaminidase B [1] = biological target: T1, hexosaminidase B (Homo sapiens, UniProt P07686); assay: Denaturation of hexosaminidase B by guanidine hydrochloride; format: biochemical
T1 construct: from tissue; host or cells: human placenta
T1 sequence (P07686 315-556 limits assumed): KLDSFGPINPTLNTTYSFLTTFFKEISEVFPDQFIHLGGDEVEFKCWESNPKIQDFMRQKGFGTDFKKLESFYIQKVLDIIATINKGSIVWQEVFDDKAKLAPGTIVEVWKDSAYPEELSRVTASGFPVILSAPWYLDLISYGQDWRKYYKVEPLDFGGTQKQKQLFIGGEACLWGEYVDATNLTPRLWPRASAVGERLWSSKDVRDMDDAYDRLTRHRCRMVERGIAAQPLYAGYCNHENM
T1 sequence (P07686 122-311 limits assumed): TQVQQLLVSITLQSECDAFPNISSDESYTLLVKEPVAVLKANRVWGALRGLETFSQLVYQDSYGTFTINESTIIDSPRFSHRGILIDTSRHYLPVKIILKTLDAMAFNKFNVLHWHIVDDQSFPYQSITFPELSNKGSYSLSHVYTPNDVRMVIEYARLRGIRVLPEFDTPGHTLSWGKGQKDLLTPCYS
T1 sequence (P07686 50-107 partner limits assumed): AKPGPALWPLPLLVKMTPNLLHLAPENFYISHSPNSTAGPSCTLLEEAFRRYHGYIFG

[2] = biological target: T2, hexosaminidase from the bacterial species Streptomyces plicatus (Sp. Hex.) (Streptomyces plicatus, UniProt O85361); settings: value carries reference superscript 56; cited from earlier work
T2 sequence (O85361 1-506): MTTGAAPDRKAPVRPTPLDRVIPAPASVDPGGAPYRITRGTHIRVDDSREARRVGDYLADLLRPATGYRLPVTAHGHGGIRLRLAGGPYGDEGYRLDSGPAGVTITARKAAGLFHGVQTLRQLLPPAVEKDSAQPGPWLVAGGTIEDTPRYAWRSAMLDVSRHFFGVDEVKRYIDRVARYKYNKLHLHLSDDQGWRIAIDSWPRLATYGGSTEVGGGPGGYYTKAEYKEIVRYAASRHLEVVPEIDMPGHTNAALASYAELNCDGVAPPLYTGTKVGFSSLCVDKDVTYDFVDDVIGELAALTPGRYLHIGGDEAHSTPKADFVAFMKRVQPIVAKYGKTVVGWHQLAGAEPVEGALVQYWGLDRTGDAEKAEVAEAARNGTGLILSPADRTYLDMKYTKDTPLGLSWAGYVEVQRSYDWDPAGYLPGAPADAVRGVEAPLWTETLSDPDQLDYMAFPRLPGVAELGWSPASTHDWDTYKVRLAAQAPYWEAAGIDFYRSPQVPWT

[3] = system: hexosaminidase A in ITSD fibroblasts; assay: MUGS hydrolysis in infantile Tay-Sachs (ITSD) fibroblasts grown with compound; format: cell-based, human
Method: Fibroblast cell lines from an unaffected patient (WT, 4212), from a patient diagnosed with the chronic (adult) form of TSD and homozygous for the mutation G269S (ATSD, 1766 or 17662) and from a fetus with the acute (infantile) form of TSD (ITSD, 2317) were grown in a-MEM (Invitrogen) supplemented with 10% FCS, and antibiotics Pen/Strep (Invitrogen) at 37° C. in a CO2 incubator. 17662: A fibroblast cell line (17662) from an adult-onset Tay-Sachs patient homozygous for the most common point mutation associated with the disease, Gly 269 Ser in the α subunit of hexosaminidase A, was obtained from Department of Pediatrics, University of Saskatoon.
The effect of inhibitors on hexosaminidase A activity in fibroblast cells was evaluated using two formats (96- or 6-wells). For the dose response curves and kinetics of increased hexosaminidase A activity in the presence or absence of each compound, cells grown in 96 well tissue culture plates (Falcon) were used. […] Each concentration point of the compounds was evaluated in triplicate.
Following 3-7 days of incubation at 37° C. in the presence or absence of the compound being tested, intracellular hexosaminidase A activity was determined. […] Hexosaminidase A activity in lysates was measured using 25 μL of 3.2 mM MUGS in CP buffer with incubation at 37° for 1 hr. Afterwards, 250 μL of 0.1M 2-amino-2-methyl-1-propanol (pH 10.5) was used to stop the reaction and increase the fluorescence of the methyl umbelliferyl product, Fluorescence was read with a Perkin-Elmer LS50B Luminescence Spectrometer equipped with a sipper and using excitation wavelength of 365 nm and emission wavelength of 450 nm. For dose response and kinetic experiments, the relative increase in hexosaminidase A activity was expressed as the average fluorescence reading from three or four wells, with cells grown in the presence of compound divided by the average fluorescent reading from a minimum of four wells, with cells grown in the absence any compound. […]

hexosaminidase A plus B = assay: Brain hexosaminidase A plus B in NGT-treated mice; format: in vivo; settings: 40 mg s.c. every 4 days for 15 days
[4] = biological target: hexosaminidase A in wild type fibroblasts (Homo sapiens, UniProt P06865+P07686); assay: Hexosaminidase A activity (MUGS) in wild type fibroblasts grown with compound; format: cell-based
Chain of hexosaminidase A in wild type fibroblasts (P07686 315-556 limits assumed, one chain of several): as the sequence (P07686 315-556 limits assumed) above
Chain of hexosaminidase A in wild type fibroblasts (P07686 122-311 limits assumed, one chain of several): as the sequence (P07686 122-311 limits assumed) above
Chain of hexosaminidase A in wild type fibroblasts (P07686 50-107 partner limits assumed, one chain of several): as the sequence (P07686 50-107 partner limits assumed) above
Method: (§1) The effect of inhibitors on hexosaminidase A activity in fibroblast cells was evaluated using two formats (96- or 6-wells). For the dose response curves and kinetics of increased hexosaminidase A activity in the presence or absence of each compound, cells grown in 96 well tissue culture plates (Falcon) were used. To ensure that equal numbers of cells were seeded in each well, trypsinized cells were diluted to give 50% confluence when plated and 200 μL aliquoted into each well of the plate. Cells grown for longer than 5 days were supplemented with fresh medium. […] Each concentration point of the compounds was evaluated in triplicate.
Following 3-7 days of incubation at 37° C. in the presence or absence of the compound being tested, intracellular hexosaminidase A activity was determined. Medium was removed, cells were washed with PBS twice and lysed using 60 μL of 10 mM citrate phosphate buffer pH 4.5 (CP buffer) containing 0.5% human serum albumin and 0.5% Triton X-100. Cells were solubilized at room temperature for 15 min, and subsequently 25 μL of lysate was transferred to a new 96 well plate. Hexosaminidase A activity in lysates was measured using 25 μL of 3.2 mM MUGS in CP buffer with incubation at 37° for 1 hr. Afterwards, 250 μL of 0.1M 2-amino-2-methyl-1-propanol (pH 10.5) was used to stop the reaction and increase the fluorescence of the methyl umbelliferyl product, Fluorescence was read with a Perkin-Elmer LS50B Luminescence Spectrometer equipped with a sipper and using excitation wavelength of 365 nm and emission wavelength of 450 nm. For dose response and kinetic experiments, the relative increase in hexosaminidase A activity was expressed as the average fluorescence reading from three or four wells, with cells grown in the presence of compound divided by the average fluorescent reading from a minimum of four wells, with cells grown in the absence any compound. To control for plate to plate variability, control (untreated) cells were included with each 96 well plate.
Subsequently, hexosaminidase A activity was assayed using a MUGS assay as described above. […]

[5] = biological target: T3, hexosaminidase A/S in ISD cells (Homo sapiens, UniProt P06865); assay: Hexosaminidase activity in infantile Sandhoff (ISD) fibroblasts grown with compound; format: cell-based
T3 construct: endogenous in cells; host or cells: infantile Sandhoff (ISD) patient fibroblasts
T3 sequence (P06865 89-529): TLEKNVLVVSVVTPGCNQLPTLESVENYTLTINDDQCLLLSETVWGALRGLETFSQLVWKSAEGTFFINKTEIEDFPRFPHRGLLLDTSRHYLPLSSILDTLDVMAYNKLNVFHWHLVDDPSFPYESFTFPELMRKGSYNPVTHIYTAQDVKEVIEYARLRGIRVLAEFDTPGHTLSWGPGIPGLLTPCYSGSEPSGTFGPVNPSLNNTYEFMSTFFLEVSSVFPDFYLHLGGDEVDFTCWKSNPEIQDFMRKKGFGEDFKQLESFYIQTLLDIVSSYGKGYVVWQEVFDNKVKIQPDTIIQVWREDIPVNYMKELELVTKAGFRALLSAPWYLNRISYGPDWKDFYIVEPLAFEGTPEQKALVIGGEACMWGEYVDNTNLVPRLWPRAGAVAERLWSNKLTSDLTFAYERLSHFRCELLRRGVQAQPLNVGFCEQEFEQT
T3 sequence (P06865 23-74 limits assumed): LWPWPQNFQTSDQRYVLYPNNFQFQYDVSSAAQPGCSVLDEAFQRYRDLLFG
Method: Cells were washed and lysed in Na Phosphate buffer pH 6.1. The lysates were divided into three equal aliquots (25 μl). To each aliquot, 25 μl of either MUGS ( 3.2 mM) or MUP (3 mg/ml) in 20 mM citrate phosphate buffer pH 4.3 was added. Reactions were incubated at 37° C. for 30-60 min. and stopped with 200 μl of 0.1M MAP buffer. Fluorescence was read using Molecular Devices.
Gemini EM MAX with excitation and emission set to 365 nm and 450 nm, respectively. The activity of Hexosaminidase A/S was measured using MUGS hydrolysis and acid phosphatase activity was measured using methylumbelliferyl phosphate (MUP).

human hexosaminidase A = human hexosaminidase A (Homo sapiens, UniProt P06865+P07686); assay: Ki on human hexosaminidase A; format: biochemical
Chain of human hexosaminidase A (P07686 315-556 limits assumed, one chain of several): as the sequence (P07686 315-556 limits assumed) above
Chain of human hexosaminidase A (P07686 122-311 limits assumed, one chain of several): as the sequence (P07686 122-311 limits assumed) above
Chain of human hexosaminidase A (P07686 50-107 partner limits assumed, one chain of several): as the sequence (P07686 50-107 partner limits assumed) above

[6] = system: hexosaminidases A plus B (total Hex); assay: Plasma hexosaminidase A plus B in NGT-treated mice (MUG); format: in vivo; settings: CD1 mice, 10, 40 or 100 mg i.p., 2 days later
Method: (§2) Plasma levels of hexosaminidases A plus B and hexosaminidase A alone were measured by the fluorescent assay described above, using MUG and MUGS as substrates respectively. β-mannosidase was similarly assayed using 4-methylumbelliferyl-β-D-mannopyranoside (MUM) as substrate.

hexosaminidase B [7] = biological target: T1, hexosaminidase B; assay: Heat denaturation of hexosaminidase B at 60° C.; format: biochemical; settings: 60° C. up to 40 minutes, 2.4 μm NAG-thiazoline, MUG
Method: The effect of NAG-thiazoline on heat denaturation of human hexosaminidase B was also examined. The enzyme was incubated at 60° C. for up to 40 minutes in the presence or absence of 2.4 μm NAG-thiazoline and its activity was then assayed as described above using MUG as substrate.

β-mannosidase = assay: Serum/plasma β-mannosidase in NGT-treated mice (MUM); format: in vivo
Method: as §2

[8] = system: hexosaminidase A in ASD fibroblasts; assay: Hexosaminidase activity in adult Sandhoff (ASD) fibroblasts grown with compound; format: cell-based, human; settings: ASD cells
Method: Fibroblast cell lines obtained from homozygous adult onset Tay-Sachs (ATSD), heterozygous adult onset Tay-Sachs (Het ATSD), infantile Tay-Sachs (ITSD and 4917), adult Sandhoff (ASD) and infantile Sandhoff (ISD) were cultured in the presence of various concentrations of ACAS and then examined for hexosaminidase A activity as described above. ACAS treatment gave increased hexosaminidase A activity in ATSD, ASD and ISD cells.

adult mice = assay: Toxicity studies in adult mice; format: in vivo
[9] = system: fibroblasts from a chronic TSD patient; settings: human, 5 days
Method: as §1

[10] = biological target: T2, hexosaminidase from the bacterial species Streptomyces plicatus (Sp. Hex.); assay: Ki on bacterial hexosaminidase (MUG assay); format: biochemical
[11] = adult male CD1 mice, 40 mg/mouse i.v. or s.c. every four days up to 30 days

CC1=NC2[C@@H](O)[C@H](O)C(CO)O[C@H]2S1 (stereo partly drawn) [NGT, N-acetylglucosamine-thiazoline]
protection of hexosaminidase B against denaturation by guanidine hydrochloride (hexosaminidase B [1]): protect
Ki [2]: 20 µM
MUGS hydrolysis with increasing concentration ([3]; ITSD cells): decline
brain hexosaminidase A plus B (hexosaminidase A plus B): essentially unchanged
increase in hexosaminidase A activity ([4]; WT fibroblasts, NGT 3 mM): two fold
activity of Hexosaminidase A/S (MUGS) ([5]; 2 days, varying concentrations): increased
hexosaminidase S activity ([5]; NGT): increased
mode of inhibition of hexosaminidase A (human hexosaminidase A): competitive inhibitors
plasma hexosaminidase A plus B (total Hex) level [6]: unchanged
hexosaminidase B activity after heat denaturation versus control (hexosaminidase B [7]): preserved greater hexosaminidase B activity than seen in the control
plasma β-mannosidase level (β-mannosidase; CD1 mice, 10, 40 or 100 mg i.p., 2 days later): unchanged
serum βD mannosidase levels versus control (β-mannosidase; mice, 10, 40 or 100 mg i.p., 3 to 4 days after treatment): generally the same
hexosaminidase A and S activity ([8]; NGT): increased
acute or sub-acute toxicity (adult mice; [11]): No acute or sub-acute toxicity was observed
histological examination of autopsied tissues (adult mice; [11]): no changes
signs of toxicity (adult mice; adult mice, 10, 40 or 100 mg i.p.): None of the mice treated with inhibitors showed any signs of toxicity

CC(=O)N[C@@H]1[C@@H](O)[C@@H](O)[C@@H](CO)O[C@H]1O [GalNAc, N-acetyl-β-D-galactosamine]
concentration at which cell lysis occurred [9]: > 200000 µM

CC(=O)NC1NCCC(O)C1O (stereo not drawn) [XylNAc-isofagomine•HCI (2.7), XylNAc-isofagomine•HCI]
Ki (human hexosaminidase A; read-out: Ki Hex A): 90 µM
Ki [10]: 38 µM

CC1=NC2[C@@H](O)[C@@H](O)C(CO)O[C@H]2S1 (stereo partly drawn) [NAGal-thiazoline (2.6), N-acetyl galactosamine-thiazoline]
Ki [2]: 100 µM
mode of inhibition of hexosaminidase A (human hexosaminidase A): competitive inhibitors

CC(=O)NC1CN2CCC(O)C2C(O)C1O (stereo not drawn) [ACAS, 6-acetamido-6-deoxy-castanospermine]
hexosaminidase A activity ([3]; ITSD fibroblasts, all concentrations): decreased
hexosaminidase A activity ([3]; infantile Tay-Sachs cells, ACAS 4 days, MUGS): not
hexosaminidase A activity ([4]; WT fibroblasts, all concentrations): decreased
hexosaminidase A activity ([4]; wild type cells, ACAS 4 days, MUGS): increased
hexosaminidase A activity ([5]; various concentrations of ACAS): increased
hexosaminidase A activity ([8]; various concentrations of ACAS): increased
